The text below walks through data of patent US20260014146A1, “CDK2 INHIBITORS AND METHODS OF USING THE SAME” (Cedilla Therapeutics, Inc., priority 2022, published 2026).

Experiment [1] deals with Kuramochi cells labeled with mApple-H2B. Briefly: IncuCyte cell proliferation assay. The class given is cell-based. The following applies: Kuramochi RB-WT, cell count 0 to 72 hours; method calls it GI50. In outline:
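mApple-H2B-labelled Kuramochi cells were treated with compound (10-point, half-log dilutions, 20 μM top) and fluorescent nuclei counted by imaging at 0 and 72 h. Fold change in count was normalized to DMSO wells and fitted to dose-response curves to give GI50.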

In the next experiment the target is CDK2/Cyclin E1 (Homo sapiens (Human), UniProt P24941). Put plainly: ADP-Glo Luminescent Kinase Assay, ADPGLO (CDK2/E1-37C). It counts as biochemical. Particulars: 0.18 nM CDK2/Cyclin E1, 100 μM ATP, 1.5 μM Histone H1, 37° C.; read-out: Pharmaron ADPGLO (CDK2/E1-37C): IC50. The method, then:
Inhibition of CDK2/Cyclin E1 activity by the presence of small molecules was evaluated using ADP-Glo Luminescent Kinase Assay (Promega). Activated CDK2/Cyclin E1 was incubated with its substrate Histone H1 (SignalChem H10-54N) in the kinase reaction buffer (100 μM ATP, 50 mM HEPES pH 7.5, 10 mM MgCl2, 1 mM EDTA, 2 mM DTT, 0.01% Brij35, 0.5 mg/mL BSA). Luminescence was recorded with an Envision plate reader (PerkinElmer).
Dose titrations of inhibitors in 100% DMSO were combined with 0.36 nM CDK2/Cyclin E1 in reaction buffer. The mixtures were incubated for 60 minutes at 37° C. before the addition of ATP and Histone H1 substrate to initiate the kinase reaction. The final conditions were 0.18 nM CDK2/Cyclin E1, 100 μM ATP, and 1.5 μM Histone H1. The reactions were incubated at 37° C. for 90 minutes before being stopped with the addition of ADP-Glo reagent. This mixture was incubated at room temperature for 60 minutes before Kinase Detection Solution is added to generate luminescence. The stopped reactions were analyzed on an Envision plate reader. The conversion ratios were normalized to yield % activity, plotted against compound concentration, and fit to a four-parameter equation to determine the IC50 for each compound.
For orientation: ADP-Glo turns the ADP formed in a reaction into a luminescent signal.

Bounds are passed on as bounds.

In the case of `C[C@@H](OCC12CCC(CC1)OC2)[C@H](NC(=O)[C@@H]1CN(c2cc(F)cc3ncsc23)CC12CN(C(=O)C1(C(F)(F)F)CC1)C2)C(=O)N1CCC2(CC1)COC2` [Compound I-46, (S)-N-((2S,3R)-3-(2-oxabicyclo[2.2.2]octan-4-ylmethoxy)-1-oxo-1-(2-oxa-7-azaspiro[3.5]nonan-7-yl)butan-2-yl)-6-(5-fluorobenzo[d]thiazol-7-yl)-2-(1-(trifluoromethyl)cyclopropanecarbonyl)-2,6-diazaspiro[3.4]octane-8-carboxamide], the IC50 in experiment [1] was over 20 µM; at CDK2/Cyclin E1, over 10 µM.
In the same order, the values of `C[C@@H](OCC12CCC(CC1)OC2)[C@@H](COC1CCC(c2ccc(C(=O)O)cc2)CC1)NC(=O)[C@@H]1CN(c2cc(F)cc3ncsc23)CC12CN(C(=O)C1(C(F)(F)F)CC1)C2` (stereo partly drawn) [Compound I-47, 4-(4-((2R,3R)-3-((2-oxabicyclo[2.2.2]octan-4-yl)methoxy)-2-((S)-6-(5-fluorobenzo[d]thiazol-7-yl)-2-(1-(trifluoromethyl)cyclopropane-1-carbonyl)-2,6-diazaspiro[3.4]octane-8-carboxamido)butoxy)cyclohexyl)benzoic acid] are 5 to 20 µM and over 10 µM.
On to `C[C@@H](OCC12CCC(CC1)OC2)[C@H](NC(=O)[C@@H]1CN(c2cc(F)cc3ncsc23)CC12CN(C(=O)C1(C(F)(F)F)CC1)C2)C(=O)N1CCC(c2nccs2)CC1` [Compound I-48, (S)-N-((2S,3R)-3-((2-oxabicyclo[2.2.2]octan-4-yl)methoxy)-1-oxo-1-(4-(thiazol-2-yl)piperidin-1-yl)butan-2-yl)-6-(5-fluorobenzo[d]thiazol-7-yl)-2-(1-(trifluoromethyl)cyclopropane-1-carbonyl)-2,6-diazaspiro[3.4]octane-8-carboxamide], for which the IC50 (in experiment [1]; at CDK2/Cyclin E1) was 0.5 to 5 µM each time.
For `C[C@@H](OCC12CCC(CC1)OC2)[C@@H](COc1ccccc1C(=O)O)NC(=O)[C@@H]1CN(c2cc(F)cc3ncsc23)CC12CN(C(=O)C1(C(F)(F)F)CC1)C2` [Compound I-49, 2-((2R,3R)-3-((2-oxabicyclo[2.2.2]octan-4-yl)methoxy)-2-((S)-6-(5-fluorobenzo[d]thiazol-7-yl)-2-(1-(trifluoromethyl)cyclopropane-1-carbonyl)-2,6-diazaspiro[3.4]octane-8-carboxamido)butoxy)benzoic acid], the IC50 in experiment [1] was over 20 µM; on CDK2/Cyclin E1 it was over 10 µM.
For `COc1ccc(S(=O)(=O)NC(=O)[C@@H](NC(=O)[C@@H]2CN(c3cc(F)cc4ncsc34)CC23CN(C(=O)C2(C(F)(F)F)CC2)C3)[C@@H](C)OCC23CCC(CC2)OC3)cc1` [Compound I-50, (S)-N-((2S,3R)-3-((2-oxabicyclo[2.2.2]octan-4-yl)methoxy)-1-((4-methoxyphenyl)sulfonamido)-1-oxobutan-2-yl)-6-(5-fluorobenzo[d]thiazol-7-yl)-2-(1-(trifluoromethyl)cyclopropane-1-carbonyl)-2,6-diazaspiro[3.4]octane-8-carboxamide], the IC50 in experiment [1] is over 20 µM; at CDK2/Cyclin E1, 5 to 10 µM.
In the same order, the values of `C[C@@H](OCC12CCC(CC1)OC2)[C@H](NC(=O)[C@@H]1CN(c2cc(F)cc3ncsc23)CC12CN(C(=O)C1(C(F)(F)F)CC1)C2)C(=O)NS(=O)(=O)c1ccc(F)cc1F` [Compound I-51, (S)-N-((2S,3R)-3-(2-oxabicyclo[2.2.2]octan-4-ylmethoxy)-1-(2,4-difluorophenylsulfonamido)-1-oxobutan-2-yl)-6-(5-fluorobenzo[d]thiazol-7-yl)-2-(1-(trifluoromethyl)cyclopropanecarbonyl)-2,6-diazaspiro[3.4]octane-8-carboxamide] are over 20 µM and 5 to 10 µM.
For `C[C@@H](OCC12CCC(CC1)OC2)[C@H](NC(=O)[C@@H]1CN(c2cc(F)cc3ncoc23)CC12CN(C(=O)C1(C(F)(F)F)CC1)C2)C(=O)N1CCC(c2nccs2)CC1` [Compound I-52, (S)-N-((2S,3R)-3-((2-oxabicyclo[2.2.2]octan-4-yl)methoxy)-1-oxo-1-(4-(thiazol-2-yl)piperidin-1-yl)butan-2-yl)-6-(5-fluorobenzo[d]oxazol-7-yl)-2-(1-(trifluoromethyl)cyclopropane-1-carbonyl)-2,6-diazaspiro[3.4]octane-8-carboxamide] the same measures were 5 to 20 µM and 5 to 10 µM.
As for `C[C@@H](OCC12CCC(CC1)OC2)[C@@H](COC1CCC(c2ccccc2C(=O)O)CC1)NC(=O)[C@@H]1CN(c2cc(F)cc3ncsc23)CC12CN(C(=O)C1(C(F)(F)F)CC1)C2` (stereo partly drawn) [Compound I-53, 2-(4-((2R,3R)-3-(2-oxabicyclo[2.2.2]octan-4-ylmethoxy)-2-((S)-6-(5-fluorobenzo[d]thiazol-7-yl)-2-(1-(trifluoromethyl)cyclopropanecarbonyl)-2,6-diazaspiro[3.4]octane-8-carboxamido)butoxy)cyclohexyl)benzoic acid], the figures for the IC50 (in experiment [1]; on CDK2/Cyclin E1) were over 20 µM and over 10 µM, respectively.
